pIC50: −log10 of the molar value. Where a name gives a salt, the structure may show the parent alone.
Assays:
Human CCR3 = biological target: T1, Human CCR3 (Homo sapiens, UniProt P51677); experiment: Receptor binding assay (RBA), [125I]-eotaxin on human CCR3-transformed K562 cells; settings: compounds of about 40 to 90% purity, read-out: Activity grade CCR3
T1 construct: The cloned CCR3 cDNA was constructed with pcDNA3 vector and transfected into a K562 cell line; expressed in transfected cells
T1 sequence (P51677 1-355): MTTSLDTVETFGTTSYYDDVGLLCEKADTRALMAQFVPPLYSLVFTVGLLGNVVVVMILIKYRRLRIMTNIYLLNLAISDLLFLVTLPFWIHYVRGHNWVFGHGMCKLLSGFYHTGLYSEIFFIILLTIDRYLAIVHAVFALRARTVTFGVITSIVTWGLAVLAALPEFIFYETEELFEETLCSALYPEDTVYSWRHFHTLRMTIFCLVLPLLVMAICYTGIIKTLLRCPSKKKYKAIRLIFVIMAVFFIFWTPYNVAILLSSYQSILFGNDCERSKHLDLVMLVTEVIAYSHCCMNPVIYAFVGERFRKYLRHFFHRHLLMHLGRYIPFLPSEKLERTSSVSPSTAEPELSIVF
Description: [Determination of IC50 Values of Compounds in Receptor Binding Assay]
• Human CCR3-transformed K562 cells were used. The cloned CCR3 cDNA was constructed with pcDNA3 vector and transfected into a K562 cell line. The human CCR3-transformed K562 cells were maintained in RPMI-1640 (Cat.#22400-089, Life Technologies) supplemented with 10% FCS (Cat.#A-1115-L, Hyclone), 55 μM 2-mercaptoethanol (Cat.#21985-023, Life Technologies), 1 mM sodium pyruvate (Cat.#11360-070, Life Technologies), 100 units/ml of penicillin G and 100 μg/ml of streptomycin (Cat.#15140-122, Life Technologies), and 0.4 mg/ml of Geneticin (Cat.#10131-035, Life Technologies) (hereinafter called “culture medium”). Before the receptor binding assay, cells were pretreated with 5 mM sodium butyrate (Cat.#193-01522, Wako)-containing the culture medium (2×10^5 cells/ml) for 20-24 hours to increase the expression of CCR3. (2) Receptor Binding Assay • Butyrate-pretreated cells, suspended in binding buffer (25 mM HEPES pH 7.6, 1 mM CaCl2, 5 mM MgCl2, 0.5% BSA, 0.1% NaN3) at a cell density of 2×10^6 cells/ml, were added into 60 μl/well in the 96-well round bottom polypropylene plate (Cat.#3365, Costar). Compounds, diluted with the binding buffer (4-times higher concentration of the final concentration), were added into 30 μl/well in the polypropylene plate. [^125I]-labeled human eotaxin (Cat.#IM290, Amersham Pharmacia Biotech), diluted with the binding buffer at the concentration of 0.4 nM (final concentration; 0.1 nM), was added into 30 μl/well in the polypropylene plate. Total 120 μl/well of binding reaction mixture (60 μl/well of cell suspension, 30 μl/well of compound solution, and 30 μl/well of [^125I]-labeled eotaxin) were incubated in the polypropylene plate for 1 hour at room temperature after the incubation, 100 μl/well of the reaction mixture was transferred to a filtration plate (Cat.#MAFB-N0B, Millipore), and washed with the washing buffer (25 mM HEPES pH 7.6, 1 mM CaCl2, 5 mM MgCl2, 0.5% BSA, 0.1% NaN3, 0.5 M NaCl) twice. The 96-well filtration plate was pretreated with 100 μl/well of 0.5% polyethylenimine (Cat.#P-3143, Sigma) for 2-4 hours at room temperature and washed with the washing buffer twice before use. The non-specific binding was determined by parallel incubation in the presence of 500 nM of non-labeled eotaxin (Cat.#23209, Genzyme Techne). The radioactivities remained on the filter were measured by liquid scintillation counter (TopCount™, Packard) after an addition of 45 μl/well of scintillant (Microscint20, Cat.#6013621, Packard). The inhibition percent at each concentration of compound was calculated, and IC50 values were determined from the inhibition curve. [Determination of IC50 Values of Compounds in Calcium Mobilization Assay] (1) Cell • Human CCR3-transformed K562 cells were used. The human CCR3-transformed K562 cells were maintained in RPMI-1640 supplemented with 10% FCS, 55 μM 2-mercaptoethanol (Cat.#21985-023, Life Technologies), 1 mM sodium pyruvate, 100 units/ml of penicillin G and 100 μg/ml of streptomycin, and 0.4 mg/ml of Geneticin. Before the calcium mobilization assay, cells were pretreated with 5 mM sodium butyrate-containing the culture medium (2×10^5 cells/ml) for 20-24 hours to increase the expression of CCR3. (2) Calcium Mobilization Assay • Butyrate-pretreated cells were loaded with Fluo-3AM (Cat.#F-1242, Molecular Probes) in loading buffer (Hanks' solution Cat.#05906 Nissui, 20 mM HEPES pH 7.6, 0.1% BSA, 1 mM probenecid Cat.#P-8761 Sigma, 1 μM Fluo-3AM, 0.01% pluronic F-127 Cat.#P-6866 Molecular Probes) at a cell density of 1×10^7 cells/ml. Then, cells were washed with calcium assay buffer (Hanks' solution Cat.#05906 Nissui, 20 mM HEPES pH 7.6, 0.1% BSA, 1 mM Probenecid Cat.#P-8761 Sigma). The cell suspension (3.3×10^6 cells/ml) was added into 60 μl/well in the 96-well clear bottom black plate (Cat.#3904, Costar). […]

SMILES | pIC50 (Human CCR3) | melting point
N#Cc1ccc(Oc2cc(Cl)cc(Cl)c2)c(S(=O)(=O)N2CCCCC2)c1 [Example 1-5] | < 6.30 | 171 to 172 °C
N#Cc1ccc(Oc2cc(Cl)cc(Cl)c2)c(S(=O)(=O)N2CCC(N3C[C@H](O)[C@@H](O)C3)CC2)c1 [Example 1-11] | 6.30 to 7.00 | 137 to 139 °C
COC(=O)C1CN(S(=O)(=O)c2cc(C#N)ccc2Oc2cc(Cl)cc(Cl)c2)CCCN1 (stereo not shown) [Example 1-12] | 6.30 to 7.00 | 
COC(=O)[C@@H]1C[C@H](N2CCCC2)CN1S(=O)(=O)c1cc(C#N)ccc1Oc1cc(Cl)cc(Cl)c1 [Example 1-13] | 6.30 to 7.00 | 
CC(C)(O)[C@@H]1CCCN1C1CCN(S(=O)(=O)c2cc(C#N)ccc2Oc2cc(Cl)cc(Cl)c2)CC1 [Example 1-34] | > 7.00 | 103 °C
N#Cc1ccc(Oc2cc(Cl)cc(Cl)c2)c(S(=O)(=O)N2CCCCC2CN2CCC(O)C2)c1 (stereo not shown) [Example 1-35] | 6.30 to 7.00 | 
N#Cc1ccc(Oc2cc(Cl)cc(Cl)c2)c(S(=O)(=O)N2CCNC(Cn3ncnn3)C2)c1 (stereo not shown) [Example 1-36] | > 7.00 | 
Cl.N#Cc1ccc(Oc2cc(Cl)cc(Cl)c2)c(S(=O)(=O)N2CCNC(Cn3cncn3)C2)c1 (stereo not shown) [Example 1-37] | > 7.00 | 184 to 185 °C (dec.)
CCN1CCCN(S(=O)(=O)c2cc(C#N)ccc2Oc2cc(Cl)cc(Cl)c2)C(C(=O)OC)C1 (stereo not shown) [Example 1-39] | 6.30 to 7.00 | 
N#Cc1ccc(Oc2cc(Cl)cc(Cl)c2)c(S(=O)(=O)N(CCN2CCCC2)C2CCCC2)c1 [Example 1-42] | 6.30 to 7.00 | 
N#Cc1ccc(Oc2cc(Cl)cc(Cl)c2)c(S(=O)(=O)N2CCNC(CN3C(=O)CCC3=O)C2)c1 (stereo not shown) [Example 1-43] | > 7.00 | 123 to 125 °C
N#Cc1ccc(Oc2cc(Cl)cc(Cl)c2)c(S(=O)(=O)N2CCC(N3CCCC3)C(CN3C(=O)CCC3=O)C2)c1 (stereo not shown) [Example 1-44] | > 7.00 | 121 °C
N#Cc1ccc(Oc2cc(Cl)cc(Cl)c2)c(S(=O)(=O)N2CCC(N3CCC[C@H]3CO)CC2)c1 [Example 1-45] | > 7.00 | 124 °C
N#Cc1ccc(Oc2cc(Cl)cc(Cl)c2)c(S(=O)(=O)N2CCC[C@H]2CN2CCC[C@H]2CO)c1 [Example 1-46] | > 7.00 | 157 °C
N#Cc1ccc(Oc2cc(Cl)cc(Cl)c2)c(S(=O)(=O)C2CCNCC2)c1 [Example 2-1, 4-(3,5-Dichloro-phenoxy)-3-(piperidine-4-sulfonyl)-benzonitrile] | < 6.30 | 

Other lines, results leading:

pIC50 (Human CCR3) | melting point | SMILES
> 7.00 |  | N#Cc1ccc(Oc2cc(Cl)cc(Cl)c2)c(S(=O)(=O)N[C@H]2CN3CCC2CC3)c1 [Example 1-1, N—(R)-(+)-(1-aza-bicyclo[2.2.2]oct-3-yl)-5-cyano-2-(3,5-dichloro-phenoxy)-benzenesulfonamide]
> 7.00 |  | CN(C)CCN(CCN1C(=O)CCC1=O)S(=O)(=O)c1cc(C#N)ccc1Oc1cc(Cl)cc(Cl)c1 [Example 1-2, 5-cyano-2-(3,5-dichloro-phenoxy)-N-(2-dimethylamino-ethyl)-N-[2-(2,5-dioxo-pyrrolidin-1-yl)-ethyl]-benzenesulfonamide]
> 7.00 |  | N#Cc1ccc(Oc2cc(Cl)cc(Cl)c2)c(S(=O)(=O)N2CCN[C@@H](Cc3c[nH]c4ccccc34)C2)c1 [Example 1-3, 4-(3,5-dichloro-phenoxy)-3-[(3S)-(1H-indol-3-ylmethyl)-piperazine-1-sulfonyl]-benzonitrile]
> 7.00 |  | N#Cc1ccc(Oc2cc(Cl)cc(Cl)c2)c(S(=O)(=O)N2CCNCC2Cn2cncn2)c1 (stereo not shown) [Example 1-4, 4-(3,5-dichlorophenoxy)-3-{[2-(1H-1,2,4-triazol-1-ylmethyl)-1-piperazinyl]sulfonyl}benzonitrile hydrochloride]
> 7.00 |  | N#Cc1ccc(Oc2cc(Cl)cc(Cl)c2)c(S(=O)(=O)N2CC3CCN(Cc4ccccc4)C3C2)c1 (stereo not shown) [Example 1-6]
> 7.00 |  | CS(=O)(=O)NCC1CN(S(=O)(=O)c2cc(C#N)ccc2Oc2cc(Cl)cc(Cl)c2)CCN1 (stereo not shown) [Example 1-7]
> 7.00 |  | CC(=O)NCC1CN(S(=O)(=O)c2cc(C#N)ccc2Oc2cc(Cl)cc(Cl)c2)CCN1 (stereo not shown) [Example 1-8]
> 7.00 |  | CS(=O)(=O)NCC1CNCCN1S(=O)(=O)c1cc(C#N)ccc1Oc1cc(Cl)cc(Cl)c1 (stereo not shown) [Example 1-9]
> 7.00 |  | CC(=O)NCC1CNCCN1S(=O)(=O)c1cc(C#N)ccc1Oc1cc(Cl)cc(Cl)c1 (stereo not shown) [Example 1-10]
> 7.00 | 155 to 156 °C | N#Cc1ccc(Oc2cc(Cl)cc(Cl)c2)c(S(=O)(=O)N2CC[C@H](NCCO)C2)c1 [Example 1-16]
> 7.00 |  | COC(=O)C1CNCCCN1S(=O)(=O)c1cc(C#N)ccc1Oc1cc(Cl)cc(Cl)c1 (stereo not shown) [Example 1-22]
> 7.00 | 116 to 117 °C | N#Cc1ccc(Oc2cc(Cl)cc(Cl)c2)c(S(=O)(=O)N2CCNC[C@@H]2Cc2c[nH]c3ccccc23)c1 [Example 1-26]
> 7.00 |  | N#Cc1ccc(Oc2cc(Cl)cc(Cl)c2)c(S(=O)(=O)N2CCNCC2CN2C(=O)CCC2=O)c1 (stereo not shown) [Example 1-27]
> 7.00 |  | CS(=O)(=O)NCC1CN(S(=O)(=O)c2cc(C#N)ccc2Oc2cc(Cl)cc(Cl)c2)CCCN1 (stereo not shown) [Example 1-28]
> 7.00 | 183 to 184 °C | CS(=O)(=O)NCC1CNCCCN1S(=O)(=O)c1cc(C#N)ccc1Oc1cc(Cl)cc(Cl)c1.Cl (stereo not shown) [Example 1-29]
> 7.00 | 169 to 170 °C | CC(=O)c1ccc(Oc2cc(Cl)cc(Cl)c2)c(S(=O)(=O)N2CCNCC2)c1 [Example 1-31]
> 7.00 |  | N#Cc1ccc(Oc2cc(Cl)cc(Cl)c2)c(S(=O)(=O)N[C@@H]2CN3CCC2CC3)c1 [Example 1-32]
> 7.00 | 224 to 225 °C | N#Cc1ccc(Oc2cc(Cl)cc(Cl)c2)c(S(=O)(=O)N2CCC(N3CCC[C@H]3C(=O)O)CC2)c1 [Example 1-33]

Reference: patent US9206186B2, “2-phenoxy- and 2-phenylsulfonamide derivatives with CCR3 antagonistic activity for the treatment of inflammatory or immunological disorders” (AXIKIN PHARMACEUTICALS, INC., priority 2003, dated 2015)
